Our source for the EC50 values is patent US7504399B2, “Piperazine enamines as antiviral agents” (priority 2006, dated 2009).

The structures appear in SMILES notation.

The test has as its system HIV-1 single-round infectious reporter virus. In words: Single-round infectious HIV-1 luciferase reporter virus infection assay in HeLa CD4 cells. It is filed as cell-based. To be noted: Human immunodeficiency virus 1, HeLa, 72 h, read-out: EC50 Group from Table 1. On the procedure:
• Virus production-Human embryonic Kidney cell line, 293T, was propagated in Dulbecco's Modified Eagle Medium (Invitrogen, Carlsbad, Calif.) containing 10% fetal Bovine serum (FBS, Sigma, St. Louis, Mo.). • Virus infection—Human epithelial cell line, HeLa, expressing the HIV-1 receptor CD4 was propagated in Dulbecco's Modified Eagle Medium (Invitrogen, Carlsbad, Calif.) containing 10% fetal Bovine serum (FBS, Sigma, St. Louis, Mo.) and supplemented with 0.2 mg/mL Geneticin (Invitrogen, Carlsbad, Calif.). Virus-Single-round infectious reporter virus was produced by co-transfecting human embryonic Kidney 293 cells with an HIV-1 envelope DNA expression vector and a proviral cDNA containing an envelope deletion mutation and the luciferase reporter gene inserted in place of HIV-1 nef sequences (Chen et al., Ref. 41). Transfections were performed using lipofectAMINE PLUS reagent as described by the manufacturer (Invitrogen, Carlsbad, Calif.). Experiment • 1. HeLa CD4 cells were plated in 96 well plates at a cell density of 1×10^4 cells per well in 100 μl Dulbecco's Modified Eagle Medium containing 10% fetal Bovine serum and incubated overnight. • 2. Compound was added in a 2 μl dimethylsulfoxide solution, so that the final assay concentration would be ≦10 μM. • 3. 100 μl of single-round infectious reporter virus in Dulbecco's Modified Eagle Medium was then added to the plated cells and compound at an approximate multiplicity of infection (MOI) of 0.01, resulting in a final volume of 200 μl per well. • 4. Virally-infected cells were incubated at 37 degrees Celsius, in a CO2 incubator, and harvested 72 h after infection. • 5. Viral infection was monitored by measuring luciferase expression from viral DNA in the infected cells using a luciferase reporter gene assay kit, as described by the manufacturer (Roche Molecular Biochemicals, Indianapolis, Ind.). Infected cell supernatants were removed and 50 μl of lysis buffer was added per well. After 15 minutes, 50 μl of freshly-reconstituted luciferase assay reagent was added per well. Luciferase activity was then quantified by measuring luminescence using a Wallac microbeta scintillation counter. • 6. The percent inhibition for each compound was calculated by quantifying the level of luciferase expression in cells infected in the presence of each compound as a percentage of that observed for cells infected in the absence of compound and subtracting such a determined value from 100. • 7. An EC50 provides a method for comparing the antiviral potency of the compounds of this disclosure. The effective concentration for fifty percent inhibition (EC50) was calculated with the Microsoft Excel Xlfit curve fitting software. For each compound, curves were generated from percent inhibition calculated at 10 different concentrations by using a four paramenter logistic model (model 205). Table 1 is the key for the data in Table 2. Results
In general terms: A reporter such as luciferase makes a cellular process visible.
On to `N#C/C=C(\c1ccccc1)N1CCN(C(=O)C(=O)c2c[nH]c3ccccc23)CC1` [EN-01], for which the EC50 (as a rule, the concentration at which the effect is half-maximal) was less than 1000 nM.

Turning to `N#CC(C#N)=C(c1ccccc1)N1CCN(C(=O)C(=O)c2c[nH]c3ccccc23)CC1` [EN-02, 2-((4-(2-(1H-indol-3-yl)-2-oxoacetyl)piperazin-1-yl)(phenyl)methylene)malononitrile], the concentration for a half-maximal effect (EC50) is less than 1000 nM.

As to `N#C/C=C(\c1ccccc1)N1CCN(C(=O)C(=O)c2c[nH]c3c(Br)ccc(F)c23)CC1` [EN-03], the 50% effective concentration (EC50) was less than 1000 nM.

As for `COc1cnc(-n2cnc(C)n2)c2[nH]cc(C(=O)C(=O)N3CCN(/C(=C/C#N)c4ccccc4)CC3)c12` [EN-05], the EC50 was less than 1000 nM.

As for `COc1cnc(-n2ccnn2)c2[nH]cc(C(=O)C(=O)N3CCN(/C(=C/C#N)c4ccccc4)CC3)c12` [EN-06], the EC50 is less than 1000 nM.

Take `COc1cnc(-n2ccnn2)c2[nH]cc(C(=O)C(=O)N3CCN(C(=C(C#N)C#N)c4ccccc4)CC3)c12` [EN-07]: the EC50 is less than 1000 nM.

On to `N#CC(C#N)=C(c1ccccc1)N1CCN(C(=O)C(=O)c2c[nH]c3c(-n4ccnn4)ncc(F)c23)CC1` [EN-08, 2-((4-(2-(4-fluoro-7-(1H-1,2,3-triazol-1-yl)-1H-pyrrolo[2,3-c]pyridin-3-yl)-2-oxoacetyl)piperazin-1-yl)(phenyl)methylene)malononitrile], for which the EC50 was less than 1000 nM.

Turning to `O=C(O)/C=C(\c1ccccc1)N1CCN(C(=O)C(=O)c2c[nH]c3cccc(F)c23)CC1` [EN-09], the EC50 was less than 1000 nM.

Consider `COc1cnc(Cl)c2[nH]cc(C(=O)C(=O)N3CCN(C(=C(C#N)C#N)c4ccccc4)CC3)c12` [EN-10], for which the EC50 was less than 1000 nM.

As to `N#CC(C#N)=C(c1ccccc1)N1CCN(C(=O)C(=O)c2c[nH]c3cccc(F)c23)CC1` [EN-11, 2-((4-(2-(4-fluoro-1H-indol-3-yl)-2-oxoacetyl)piperazin-1-yl)(phenyl)methylene)malononitrile], the EC50 is less than 1000 nM.

Take `COc1cnc(Cl)c2[nH]cc(C(=O)C(=O)N3CCN(/C(=C/C#N)c4ccccc4)CC3)c12` [EN-13]: the EC50 was less than 1000 nM.
